Measured values from ChEMBL document CHEMBL4368919, “Identification of the Metabolic Profile of the α-Tubulin-Binding Natural Product (-)-Pironetin” (J Med Chem, 2019).

How the values were obtained:
3Y1 cell line = test: Cell cycle arrest in rat 3Y1 cells assessed as accumulation at G2/M phase after 24 hrs by propidium iodide-staining based flow cytometry relative to (-)-Pironetin; assay type: ADME; details: 3y1, 24 h
[1] = target: T1, Tubulin alpha (Homo sapiens) (UniProt P0DPH7+P68366+Q71U36+P68363+Q9BQE3+Q6PEY2+A6NHL2+Q9NY65); test: Inhibition of tubulin alpha in human A2780 cells assessed as cell growth inhibition after 48 hrs by MTT assay; assay type: cell-based
[2] = target: T1, Tubulin alpha (Homo sapiens); test: Inhibition of tubulin alpha in human A2780CP cells assessed as cell growth inhibition after 48 hrs by MTT assay; assay type: cell-based
[3] = Drug level in human liver microsomes treated with pironetin assessed as compound formation after 30 mins by LC-MS/MS analysis; assay type: ADME, Microsome; details: 0.5 h
[4] = Inhibition of tubulin alpha in human A2780 cells assessed as reduction in cell growth
[5] = Stability in human serum assessed as compound remaining at 1.10 mg after 24 hrs by HPLC analysis; assay type: ADME, cell-free; details: read-out: Stability
[6] = Stability in mouse serum assessed as compound remaining at 1.30 ml after 24 hrs by HPLC analysis; assay type: ADME, cell-free; details: read-out: Stability
[7] = Stability in rat serum assessed as compound remaining after 24 hrs; assay type: ADME, cell-free; details: read-out: Stability
[8] = Half life in human liver microsomes in presence of NADPH regeneration system by LC-MS/MS analysis; assay type: ADME, Microsome
[9] = Half life in mouse liver microsomes in presence of NADPH regeneration system by LC-MS/MS analysis; assay type: ADME, Microsome
[10] = Half life in rat liver microsomes in presence of NADPH regeneration system by LC-MS/MS analysis; assay type: ADME, Microsome
[11] = Protein binding in human plasma; assay type: ADME, cell-free; details: read-out: PPB (converted)
[12] = Protein binding in mouse plasma; assay type: ADME, cell-free; details: read-out: PPB (converted)
[13] = Protein binding in rat plasma; assay type: ADME, cell-free; details: read-out: PPB (converted)
Cytochrome P450 2C9 = Cytochrome P450 2C9 (Homo sapiens, UniProt P11712); test: Inhibition of CYP2C9 (unknown origin) using tolbutamide as substrate; assay type: ADME
Cytochrome P450 2D6 = Cytochrome P450 2D6 (Homo sapiens, UniProt P10635); test: Inhibition of CYP2D6 (unknown origin) using dextromethorphan as substrate; assay type: ADME
Cytochrome P450 3A4 [14] = target: T2, Cytochrome P450 3A4 (Homo sapiens, UniProt P08684); test: Inhibition of CYP3A4 (unknown origin) using midazolam as substrate; assay type: ADME
Cytochrome P450 3A4 [15] = target: T2, Cytochrome P450 3A4; test: Inhibition of CYP3A4 (unknown origin) using testosterone as substrate; assay type: ADME

T2 sequence (P08684 whole entry): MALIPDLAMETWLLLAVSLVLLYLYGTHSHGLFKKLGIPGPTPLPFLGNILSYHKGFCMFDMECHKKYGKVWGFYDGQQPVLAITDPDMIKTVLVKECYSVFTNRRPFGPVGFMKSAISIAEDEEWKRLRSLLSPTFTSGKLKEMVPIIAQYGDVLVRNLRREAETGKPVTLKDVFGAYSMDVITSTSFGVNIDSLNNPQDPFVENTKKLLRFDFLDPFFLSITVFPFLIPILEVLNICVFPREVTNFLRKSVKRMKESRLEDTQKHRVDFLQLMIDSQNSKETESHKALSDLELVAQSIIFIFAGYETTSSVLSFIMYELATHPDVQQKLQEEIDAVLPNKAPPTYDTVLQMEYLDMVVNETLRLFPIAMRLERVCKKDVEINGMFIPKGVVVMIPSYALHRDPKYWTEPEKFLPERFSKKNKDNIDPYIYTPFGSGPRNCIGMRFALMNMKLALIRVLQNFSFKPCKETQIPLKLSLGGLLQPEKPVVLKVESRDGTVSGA
Sequence of Cytochrome P450 2D6 (P10635 whole entry): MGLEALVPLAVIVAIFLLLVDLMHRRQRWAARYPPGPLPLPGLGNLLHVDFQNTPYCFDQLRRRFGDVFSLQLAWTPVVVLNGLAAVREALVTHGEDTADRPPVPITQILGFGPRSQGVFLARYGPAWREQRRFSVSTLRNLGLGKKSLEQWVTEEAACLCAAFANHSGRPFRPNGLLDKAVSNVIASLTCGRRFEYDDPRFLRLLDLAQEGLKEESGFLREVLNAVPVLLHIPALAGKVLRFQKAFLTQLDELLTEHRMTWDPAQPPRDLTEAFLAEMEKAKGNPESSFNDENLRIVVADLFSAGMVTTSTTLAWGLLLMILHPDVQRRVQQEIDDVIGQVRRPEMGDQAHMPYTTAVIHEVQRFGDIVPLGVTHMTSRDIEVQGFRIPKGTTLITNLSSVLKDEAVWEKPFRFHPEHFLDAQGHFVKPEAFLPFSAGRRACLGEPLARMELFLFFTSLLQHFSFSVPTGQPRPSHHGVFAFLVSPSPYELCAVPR
Sequence of Cytochrome P450 2C9 (P11712 whole entry): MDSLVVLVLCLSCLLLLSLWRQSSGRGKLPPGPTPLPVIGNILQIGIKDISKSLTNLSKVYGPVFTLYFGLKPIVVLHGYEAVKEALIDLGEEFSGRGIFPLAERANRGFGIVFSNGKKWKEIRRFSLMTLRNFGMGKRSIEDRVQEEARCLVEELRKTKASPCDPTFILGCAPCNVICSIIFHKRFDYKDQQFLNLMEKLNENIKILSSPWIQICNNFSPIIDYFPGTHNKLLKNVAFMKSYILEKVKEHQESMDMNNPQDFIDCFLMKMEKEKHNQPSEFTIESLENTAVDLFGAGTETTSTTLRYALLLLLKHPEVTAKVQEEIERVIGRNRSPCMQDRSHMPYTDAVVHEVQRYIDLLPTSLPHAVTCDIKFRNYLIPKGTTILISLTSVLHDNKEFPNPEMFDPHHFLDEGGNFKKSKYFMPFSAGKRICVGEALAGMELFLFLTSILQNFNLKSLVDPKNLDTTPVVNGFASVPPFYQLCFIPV

remaining at 24 h [5] [%] | remaining at 24 h [6] [%] | remaining at 24 h [7] [%] | t1/2 [8] [min] | t1/2 [9] [min] | t1/2 [10] [min] | fraction unbound [11] | fraction unbound [12] | fraction unbound [13] | inhibition (INH) (Cytochrome P450 2C9) | inhibition (INH) (Cytochrome P450 2D6) | inhibition (INH) (Cytochrome P450 3A4 [14]) | inhibition (INH) (Cytochrome P450 3A4 [15]) | Compound | Activity (3Y1 cell line) | GI50 [1] [nM] | GI50 [2] [nM] | Drug uptake [3] | fold change (FC) (3Y1 cell line) | IC50 [4] [nM]
 |  |  |  |  |  |  |  |  |  |  |  |  | C/C=C/C[C@H](C)[C@@H](O)[C@@H](C)[C@H](O)C[C@H]1OC(=O)C=C[C@H]1CC | Toxic | 29.6 | 82.3 | Active |  | 
 |  |  |  |  |  |  |  |  |  |  |  |  | CC[C@@H]1C=CC(=O)O[C@@H]1C[C@@H](O)[C@H](C)[C@H](OC)[C@@H](C)C[C@@H]1O[C@H]1C (relative stereo) |  | 218 | 1010 | Active | 25 | 540
50 | 35 | 56 | 7 | < 15 | < 15 | 0.13 | 0.02 | 0.07 | Active | Active | Active | Active | C/C=C/C[C@H](C)[C@@H](OC)[C@@H](C)[C@H](O)C[C@H]1OC(=O)C=C[C@H]1CC [PIRONETIN] |  | 22.2 | 22.3 |  |  | 26
